Earlier results on one molecule are cited in US5236955A, “Anti-fungal agent” (Washington University, priority 1992, dated 1993).

The subject of the series is HIV-1. The settings on record: acutely infected human T lymphocyte cell line; cited from earlier work.

Each structure is given as a SMILES string.

For the molecule `CCCCCCCCCCOCCC(=O)O` [O4, 4-oxatetradecanoic acid], the HIV-1 replication result is “inhibits HIV-1 replication”.
